# Where “and” joins values, the source holds several entries; their conditions need not be identical. Identical values can stand only once.
# Experiments:
# [1] = carboplatin plasma pharmacokinetics in mice; type: in vivo, Balb/c mice
# Description: Balb/c mice received a bolus [^14C]carboplatin tail vein injection at microdose (0.373 mg/kg; 50,000 dpm/gm) or therapeutic dose (37.3 mg/kg; 50,000 dpm/gm). Mice were sacrificed in triplicate at 15 min, 1 h, 2 h, 8 h and 24 h. Concentrations of carboplatin in plasma were measured by liquid scintillation counting at each time point.
# Hs 578T = experiment: MTT assay, carboplatin cytotoxicity; type: cell-based, human; conditions: 72 hours
# Description: (§1) Six breast cancer cell lines were tested. […] The cell lines were purchased from ATCC, and cultured in the recommended media. IC50 values were determined for each cell line using the MTT assay (Henderson et al., International Journal of Cancer 2011) after incubating cells for 72 hours with different concentrations of carboplatin. [^14C] carboplatin (53 mCi/mmol) was purchased from the GE Healthcare (Waukesha, Wis.) and further purified at Moravek Biochemical (Brea, Calif.). Unlabeled carboplatin (USP Pharmaceutical Grade) was used to minimize the usage of radiocarbon and achieve the specific activities required for microdoses and therapeutic doses.
# MDA MB 468 = experiment: MTT assay, carboplatin cytotoxicity; type: cell-based, human; conditions: 72 hours
# Description: as §1
# T47D = experiment: MTT assay, carboplatin cytotoxicity; type: cell-based, human; conditions: 72 hours
# Description: as §1
# MCF-7 = experiment: MTT assay, carboplatin cytotoxicity; type: cell-based, human; conditions: 72 hours
# Description: as §1
# BT 549 = experiment: MTT assay, carboplatin cytotoxicity; type: cell-based, human; conditions: 72 hours
# Description: as §1
# MDA MB 231 = experiment: MTT assay, carboplatin cytotoxicity; type: cell-based, human; conditions: 72 hours
# Description: as §1
# Tumor Tissue = experiment: microdose-induced carboplatin-DNA monoadducts in patients; type: in vivo, human
# Description: Based upon the previous mouse studies that identified a minimal microdose for accurate AMS analysis of carboplatin monoadducts (1% of therapeutic carboplatin containing 50,000 DPM/gm of mouse body weight), the first in-human evaluation of microdose [^14C]carboplatin was conducted at this same equivalent formulation. The mouse radioactive dose (50,000 DPM/gm), adjusted for body surface area differences between mouse and humans, is equivalent to a dose of 1.0×10^7 DPM/kg of human body weight. The carboplatin dose for human chemotherapy is personalized to a patient's size and kidney function and is calculated using the Calvert formula with an AUC of 6 (Calvert, A. H., et al. “Carboplatin dosage: prospective evaluation of a simple formula based on renal function.” Journal of Clinical Oncology 7.11 (1989): 1748-1756). […] After blood collection, the BD Vacutainer CPT™ tubes were gently inverted several times to ensure mixing with heparin anticoagulant. The tubes were immediately placed on ice or stored at 4° C. and_then processed within 2 hours of collection to separate plasma and PBMC. For processing, the blood filled BD Vacutainer CPT™ tubes were centrifuged at room temperature in a horizontal rotor for 25 minutes at 1600×g. The top plasma layer was transferred to separate tubes and stored at or below −70° C. After most of the plasma was removed from the CPT tube, PBMC were transferred to another tube and washed three times with ice-cold phosphate-buffered solution (PBS). After pelleting the cells and removing the supernatant, the PBMC's were stored frozen at −80° C. until being processed to isolate DNA for determination of the carboplatin-DNA monoadduct frequency. […]
# As we have shown in cell culture and mouse tumor xenograph experiments, the carboplatin-DNA monoadduct frequency is proportional to the dose and time integrated exposure to carboplatin. […] DNA from PBMC and tumor tissue was extracted and analyzed by AMS for carboplatin-DNA monoadduct frequency. […]
# 5637R = experiment: MTT assay IC50, oxaliplatin-resistant bladder cancer sub-line; type: cell-based, human; conditions: 5637R, 72 hours
# Description: Drug-DNA adduct formation and repair was measured by accelerator mass spectrometry.
# To confirm that 5637 was the original ATCC cell line, and that 5637R originated from the parental 5637 cell line, both cultures were sent to the ATCC Cell Line Authentication Service for cell verification per the ATCC protocol. More specifically, fifteen short tandem repeat (STR) loci plus the gender determining locus, amelogenin, were amplified using the commercially available PowerPlex® 16HS Kit from Promega.
# These two cell lines were also cultured with a range of concentrations of cisplatin, carboplatin, gemcitabine, doxorubicin, methotrexate and vinblastine for 72 hours to determine IC50 for these other drugs (FIG. 16C). These drugs were chosen because of their frequent use in the treatment of bladder cancer.
# PBMC = experiment: microdose-induced carboplatin-DNA monoadducts in patients; type: in vivo, human; conditions: for 4 h adducts PBMC / 24 h adducts PBMC: microdose; for lowest DNA monoadduct level observed: first nineteen patients, microdose 1% of therapeutic dose
# Description: Based upon the previous mouse studies that identified a minimal microdose for accurate AMS analysis of carboplatin monoadducts (1% of therapeutic carboplatin containing 50,000 DPM/gm of mouse body weight), the first in-human evaluation of microdose [^14C]carboplatin was conducted at this same equivalent formulation. The mouse radioactive dose (50,000 DPM/gm), adjusted for body surface area differences between mouse and humans, is equivalent to a dose of 1.0×10^7 DPM/kg of human body weight. The carboplatin dose for human chemotherapy is personalized to a patient's size and kidney function and is calculated using the Calvert formula with an AUC of 6 (Calvert, A. H., et al. “Carboplatin dosage: prospective evaluation of a simple formula based on renal function.” Journal of Clinical Oncology 7.11 (1989): 1748-1756). […] After blood collection, the BD Vacutainer CPT™ tubes were gently inverted several times to ensure mixing with heparin anticoagulant. The tubes were immediately placed on ice or stored at 4° C. and_then processed within 2 hours of collection to separate plasma and PBMC. For processing, the blood filled BD Vacutainer CPT™ tubes were centrifuged at room temperature in a horizontal rotor for 25 minutes at 1600×g. The top plasma layer was transferred to separate tubes and stored at or below −70° C. After most of the plasma was removed from the CPT tube, PBMC were transferred to another tube and washed three times with ice-cold phosphate-buffered solution (PBS). After pelleting the cells and removing the supernatant, the PBMC's were stored frozen at −80° C. until being processed to isolate DNA for determination of the carboplatin-DNA monoadduct frequency. Tumor samples were collected by biopsy or resection approximately 24 hours after administration of the [^14C]carboplatin microdose. These tumor specimens were placed in ice immediately after being obtained, washed three times with ice-cold PBS, and stored at or below −20° C. within 2 hours of collection. These frozen tumor samples were then processed at a later time to isolate DNA for determination of the carboplatin-DNA monoadduct frequency. To isolate DNA, tumor tissue was placed on ice in a sterile petri dish and minced with a sterile scalpel for approximately 30-90 sec per sample. Approximately 20-100 mg of tissue was then processed using the modified Wizard DNA isolation protocol as described previously.
# Two lung and three bladder cancer patients were monitored post carboplatin therapeutic treatment to determine therapeutic outcome. Each patient was given a microdose of [^14C]carboplatin by IV injection. The microdose was 1% of therapeutic based upon Calvert calculation and formulated with [^14C]carboplatin at 1.0×10^7 DPM/kg of body weight. At time points of 2, 4, 8 and 24 hours, blood samples were taken from which PBMCs were isolated determination of carboplatin-DNA monoadduct frequency, and expressed as carboplatin-DNA monoadducts per 10^8 nucleotides (FIG. 13).
# As we have shown in cell culture and mouse tumor xenograph experiments, the carboplatin-DNA monoadduct frequency is proportional to the dose and time integrated exposure to carboplatin. In this example we establish the useful range of carboplatin-DNA monoadduct frequencies in cancer patients receiving 1% of their therapeutic dose of carboplatin at a fixed time after microdose exposure. […] DNA from PBMC and tumor tissue was extracted and analyzed by AMS for carboplatin-DNA monoadduct frequency. […] Tumor carboplatin-DNA monoadduct frequencies ranged from 0.3 and 42.5 adducts per 10^8 nucleotides.
# [2] = Bladder cancer, individual patients
compound,measurement,setting,value
N.N.O=C([O-])C1(C(=O)[O-])CCC1.[Pt+2] [carboplatin],Cmax,[1]; microdose 0.373 mg/kg,1 µM
same,initial T1/2,[1]; microdose 0.373 mg/kg bolus tail vein,50 min
same,Cmax,[1]; therapeutic dose 37.3 mg/kg,127 ± 30 µM
same,initial T1/2,[1]; therapeutic dose 37.3 mg/kg bolus tail vein,50 min
same,IC50,Hs 578T,44 µM
same,IC50,MDA MB 468,44 µM
same,IC50,T47D,250 µM
same,IC50,MCF-7,137 µM
same,IC50,BT 549,68 µM
same,IC50,MDA MB 231,250 µM
same,24 h adducts Tumor,Tumor Tissue; [2],20.2 per 10^8 nt and 14.8 per 10^8 nt and 5.37 per 10^8 nt and 3.13 per 10^8 nt and 0.31 per 10^8 nt and 42.5 per 10^8 nt and 8.79 per 10^8 nt and 0.923 per 10^8 nt
same,24 h adducts Tumor,Tumor Tissue; Hodgkin patient,4.58 per 10^8 nt
same,24 h adducts Tumor,"Tumor Tissue; NSCLC, individual patients",0.87 per 10^8 nt and 0.66 per 10^8 nt and 1.3 per 10^8 nt
same,IC50,5637R,72.2 µM
same,4 h adducts PBMC,PBMC; [2],1.113 per 10^8 nt and 0.265 per 10^8 nt and 0.545 per 10^8 nt and 0.184 per 10^8 nt and 0.193 per 10^8 nt and 1.004 per 10^8 nt and 0.600 per 10^8 nt and 1.399 per 10^8 nt and 0.599 per 10^8 nt and 0.239 per 10^8 nt and 0.421 per 10^8 nt
same,24 h adducts PBMC,PBMC; [2],0.443 per 10^8 nt and 0.081 per 10^8 nt and 0.930 per 10^8 nt and 0.154 per 10^8 nt and 0.283 per 10^8 nt and 0.968 per 10^8 nt and 0.499 per 10^8 nt and 0.485 per 10^8 nt and 0.329 per 10^8 nt and 0.978 per 10^8 nt
same,4 h adducts PBMC,PBMC; Hodgkin patient,0.861 per 10^8 nt
same,24 h adducts PBMC,PBMC; Hodgkin patient,0.472 per 10^8 nt
same,4 h adducts PBMC,"PBMC; NSCLC, individual patients",0.447 per 10^8 nt and 0.662 per 10^8 nt and 0.386 per 10^8 nt and 0.587 per 10^8 nt and 0.234 per 10^8 nt and 2.214 per 10^8 nt
same,24 h adducts PBMC,"PBMC; NSCLC, individual patients",0.837 per 10^8 nt and 1.3 per 10^8 nt and 0.454 per 10^8 nt and 0.942 per 10^8 nt and 0.342 per 10^8 nt and 0.232 per 10^8 nt
same,lowest DNA monoadduct level observed,PBMC,~3.2 monoadducts per cell
same,lowest DNA monoadduct level observed,PBMC; 1.0×10^7 DPM/kg,0.05 adducts per 10^8 nucleotides

# From patent US20200010910A1, “Cytotoxic Chemotherapy-Based Predictive Assays for Acute Myeloid Leukemia” (The Regents of The University of California, priority 2017, published 2020)
